# Experimental data as given in US20050287068A1, “Efficacy of active immunotherapy by integrating diagnostic with therapeutic methods” (priority 2004, published 2005).
# Test system: PRAME 425-433
# Assay: IFN-gamma ELISA on splenocytes restimulated with native peptide after intra-lymph-node immunization
# Type: in vivo, HHD transgenic mice
# Settings: different concentrations of plasmid or peptide (peptide together with dsRNA), inguinal lymph nodes, days 0, 3, 14 and 18; spleens 10 days after immunization; FIG. 4 in pg IFN-gamma/ml
# Description: HHD transgenic mice (n=4/group) were immunized with a PRAME 425-433 expressing plasmid (as described in U.S. Provisional Application No. __/______ (Atty Docket No. MANNK.053PR), entitled METHODS AND COMPOSITIONS TO ELICIT MULTIVALENT IMMUNE RESPONSES AGAINST DOMINANT AND SUBDOMINANT EPITOPES, EXPRESSED ON CANCER CELLS AND TUMOR STROMA, filed on date even with this disclosure, which is hereby incorporated by reference in its entirety) or peptide together with dsRNA (different concentrations of plasmid or peptide, by direct inoculation into the inguinal lymph nodes with 25 μl of plasmid or peptide in PBS/lymph node, on days 0, 3, 14 and 18. Spleens were harvested at 10 days after completion of immunization, splenocytes were incubated over 48 hours with native peptide (10 μg/ml), supernatants harvested and IFN-gamma concentration measured by ELISA.
substance,measurement,value
"PRAME 425-433 peptide: PRAME 425-433 peptide given together with dsRNA into inguinal lymph nodes (SLLQHLIGL; UniProt P78395 425-433, looked up, fragment)",magnitude of the immune response (IFN-gamma concentration measured by ELISA),"the larger the dose of peptide, the lower the immune response"
